Source: PubChem BioAssay (NCI)
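All cell lines were grown in 96-well plates and treated with compound for 48 hours. The concentration for full growth arrest is given as TGI.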

Columns and labels:
Experiment in all cases: NCI tumour cell line growth inhibition, 48 h
[1] = test system: P388/ADR leukemia
[2] = test system: SN12K1 renal
[3] = test system: DLD-1 colon
[4] = test system: KM20L2 colon
[5] = test system: P388 leukemia
[6] = test system: RXF-631 renal

Structure (SMILES) | TGI [1] [µM] | TGI [2] [nM] | TGI [3] [µM] | TGI [4] [µM] | TGI [5] [µM] | TGI [6] [µM]
COc1cc2c(cc1Oc1ccc(OC)c3c1CC1c4c(cc(OC)c(OC)c4-3)CCN1C)CC1c3c(cc(OC)c(OC)c3-2)CCN1C (centres undefined) | 5.71 | 2540 | 9.17 | 3.59 | 4.02 | –
COc1cc(O)c2c(c1)C(=O)c1cc(C)cc(O)c1C2=O | – | – | > 100 | > 100 | – | > 100
Nc1nnc(N)n1NC(=O)C(=O)Nc1ccc([N+](=O)[O-])cc1 | – | – | > 100 | > 100 | – | > 100
O=C(O)C1=NNC(C(=O)O)=NN1 | – | – | > 100 | > 100 | – | –
Cc1cc(=O)oc2c1cc(OCC(=O)OCCN1CCCCC1)c1occ(C)c12 | – | – | > 100 | > 100 | – | –
NC(=O)Nc1cc(O)ccc1N=Nc1ccc(S(=O)(=O)Nc2ccccn2)cc1 | – | – | – | > 100 | – | –
C[n+]1ccc(-c2cc[n+](C)cc2)cc1 | – | – | > 47.2 | > 100 | – | –
COc1c(Cl)cc(S(=O)O)cc1Cl | – | – | > 100 | – | – | –
